Measured values reported in PMC7176929, “Meroterpenoids With Protein Tyrosine Phosphatase 1B Inhibitory Activities From the Fruiting Bodies of Ganoderma ahmadii” (Frontiers in Chemistry, 2020).

Target: T1, recombinant PTP1B catalytic domain (Homo sapiens, UniProt P18031)
T1 construct: made in house
T1 sequence (P18031 3-277 limits assumed): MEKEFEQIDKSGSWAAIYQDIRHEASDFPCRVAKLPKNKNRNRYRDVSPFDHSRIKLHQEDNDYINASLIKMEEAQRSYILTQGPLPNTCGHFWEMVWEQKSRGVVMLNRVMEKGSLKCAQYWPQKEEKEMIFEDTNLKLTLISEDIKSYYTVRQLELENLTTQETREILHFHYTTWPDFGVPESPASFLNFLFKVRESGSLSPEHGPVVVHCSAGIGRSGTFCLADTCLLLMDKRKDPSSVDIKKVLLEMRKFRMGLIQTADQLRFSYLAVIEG
Experiment: PTP1B inhibition assay (pNPP substrate)
Type: biochemical
Details: pNPP as substrate, absorbance at 405 nm, 37 °C; read-out: IC50, inhibitory activity against PTP1B
Description: The expressed and purified methods of recombinant PTP1B catalytic domain were the same as references (Liu et al., [2018]). The dephosphorylation of p-nitrophenyl phosphate (pNPP) generated the product pNP, which can be monitored at an absorbance for 405 nm. The compounds were pre-incubated with the enzyme at 37 °C for 5 min. […] After incubation at 37°C for 15 min, the reaction was […] using 0.5 M pNPP (12.5 μL). After initializing the enzymatic reaction, the plate was then read every 20 s for 15 min in the microplate reader at 405 nm. […] The equation used was: [(Ablank-Asample)/Ablank] × 100%. The IC50 values were determined by linear or non-linear regression analysis of the concentration-response data curve.

**Q.** For C/C(=C\CC/C(=C/CC/C(=C/C(=O)c1cc(O)ccc1O)C(=O)O)CO)COC(=O)/C=C/c1ccc(O)cc1 [Compound 1, Ganoduriporol F], which IC50 is on record?
**A.** The IC50 was 17 µM.

**Q.** How did the IC50 turn out when C/C(=C\CCC(CO)CCC/C(=C/C(=O)c1cc(O)ccc1O)C(=O)O)COC(=O)/C=C/c1ccc(O)c(O)c1 (stereo not shown) [Compound 2, Ganoduriporol G] was run?
**A.** The IC50 was 20 µM.

**Q.** With CC(=O)OCC(CC/C=C(/CC(=O)c1cc(O)ccc1O)C(=O)O)CC/C=C(\C)COC(=O)/C=C/c1ccc(O)cc1 (stereo not shown) [Compound 3, Ganoduriporol H] as the compound, how does the IC50 read?
**A.** Its IC50 is 19 µM.

**Q.** For CC(=O)OCC(CC/C=C(\C)COC(=O)/C=C/c1ccc(O)cc1)CCC/C(=C/C(=O)c1cc(O)ccc1O)C(=O)O (stereo not shown) [Compound 4, Ganoduriporol I], which IC50 is on record?
**A.** Its IC50 is 23 µM.
